Assay results reported in publication PMC12155096 (International Journal of Molecular Sciences, 2025).

biological target: T1, human CYP2C9 (Homo sapiens, UniProt P11712); assay: not given; settings: not given
T1 sequence (P11712 whole entry): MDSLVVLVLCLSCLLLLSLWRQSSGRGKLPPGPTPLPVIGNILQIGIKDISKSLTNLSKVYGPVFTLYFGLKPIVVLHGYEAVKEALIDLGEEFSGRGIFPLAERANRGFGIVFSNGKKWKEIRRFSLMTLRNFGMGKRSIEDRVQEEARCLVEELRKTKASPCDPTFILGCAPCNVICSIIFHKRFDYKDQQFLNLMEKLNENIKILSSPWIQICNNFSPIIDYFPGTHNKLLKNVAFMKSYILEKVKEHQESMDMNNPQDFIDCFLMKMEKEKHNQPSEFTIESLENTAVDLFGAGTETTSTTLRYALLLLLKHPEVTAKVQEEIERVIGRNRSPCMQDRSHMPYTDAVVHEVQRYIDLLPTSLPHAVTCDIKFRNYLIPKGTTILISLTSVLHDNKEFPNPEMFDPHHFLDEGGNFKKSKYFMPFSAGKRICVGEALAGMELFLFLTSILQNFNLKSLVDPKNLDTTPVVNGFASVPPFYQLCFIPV

Compound | CYP2C9 AC50 (half-maximal activity concentration)
O=C(NC(=O)c1c(F)cccc1F)Nc1cc(Cl)c(Oc2ncc(C(F)(F)F)cc2Cl)c(Cl)c1 [Chlorfluazuron] | Inconclusive inhibitor
CCSC(=O)N(CC)C1CCCCC1 [Cycloate] | Inconclusive inhibitor
N#Cc1c(Cl)cccc1Cl [Dichlobenil] | Inconclusive inhibitor
C[C@]12CC[C@@H]3c4ccc(OC(=O)N(CCCl)CCCl)cc4CC[C@H]3[C@@H]1CC[C@@H]2O [Estramustine] | Inactive
CCC1(c2ccccc2)CCC(=O)NC1=O (centres unmarked) [Glutethimide] | Inconclusive inhibitor
C[C@@H]1CC[C@@]2(OC1)O[C@H]1C[C@H]3[C@@H]4CC[C@H]5C[C@@H](O)CC[C@]5(C)[C@H]4CC(=O)[C@]3(C)[C@H]1[C@@H]2C [Hecogenin] | Inactive
O=C(O)CCCc1c[nH]c2ccccc12 [Indole-3-butyric acid] | Inactive
O=C(CCOCCOCCOCCOCCC(=O)Nc1c(I)cc(I)c(C(=O)O)c1I)Nc1c(I)cc(I)c(C(=O)O)c1I [Iodoxamic Acid] | Inactive
CC(=O)[C@H]1[C@H](C#N)C[C@H]2[C@@H]3CC=C4C[C@@H](O)CC[C@]4(C)[C@H]3CC[C@@]21C [Pregnenolone carbonitrile] | Inconclusive inhibitor
O=C1OC(=O)c2c(Cl)c(Cl)c(Cl)c(Cl)c21 [Tetrachlorophthalic anhydride] | Inactive

biological target: T2, human CYP2C19 (Homo sapiens, UniProt P33261); assay: biochemical; settings: not given
T2 sequence (P33261 whole entry): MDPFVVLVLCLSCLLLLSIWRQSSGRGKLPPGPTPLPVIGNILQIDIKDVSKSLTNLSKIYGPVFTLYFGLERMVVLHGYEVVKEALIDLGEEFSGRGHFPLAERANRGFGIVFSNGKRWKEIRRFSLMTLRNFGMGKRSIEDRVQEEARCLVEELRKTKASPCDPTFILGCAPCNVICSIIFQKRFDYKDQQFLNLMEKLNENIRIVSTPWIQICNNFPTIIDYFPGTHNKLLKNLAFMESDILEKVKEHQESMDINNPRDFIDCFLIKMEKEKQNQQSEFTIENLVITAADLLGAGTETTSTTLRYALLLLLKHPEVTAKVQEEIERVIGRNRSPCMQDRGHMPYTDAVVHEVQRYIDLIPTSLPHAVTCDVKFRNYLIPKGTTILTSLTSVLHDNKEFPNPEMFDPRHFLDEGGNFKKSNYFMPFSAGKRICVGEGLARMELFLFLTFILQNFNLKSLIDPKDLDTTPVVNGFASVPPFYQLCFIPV

Compound | AC50
CCCCOC(=O)COc1ccc(Cl)cc1Cl [2,4-D 1-butyl ester] | 30.5 ± 10 µM

same assay, conditions: CYP2C19 AC50 (half-maximal activity concentration)

Compound | AC50
Cc1c(C)c([N+](=O)[O-])c(C(C)(C)C)c([N+](=O)[O-])c1C | 22.8 µM
O=[N+]([O-])c1cc(C(F)(F)F)cc([N+](=O)[O-])c1Cl | 56.7 µM
N#CCCC(Br)(C#N)CBr (centres unmarked) [1,2-Dibromo-2,4-dicyanobutane] | 11.5 µM
c1cnc2c(c1)ccc1cccnc12 [1,10-Phenanthroline] | 11.9 µM
O=[N+]([O-])c1cccc2ccccc12 [1-Nitronaphthalene] | 59.8 µM
O=C1OC(=O)c2c(Cl)c(Cl)c(Cl)c(Cl)c21 [Tetrachlorophthalic anhydride] | 89.4 µM

biological target: human CYP2D6 (Homo sapiens, UniProt P10635); assay: not given; settings: not given
Sequence (P10635 whole entry): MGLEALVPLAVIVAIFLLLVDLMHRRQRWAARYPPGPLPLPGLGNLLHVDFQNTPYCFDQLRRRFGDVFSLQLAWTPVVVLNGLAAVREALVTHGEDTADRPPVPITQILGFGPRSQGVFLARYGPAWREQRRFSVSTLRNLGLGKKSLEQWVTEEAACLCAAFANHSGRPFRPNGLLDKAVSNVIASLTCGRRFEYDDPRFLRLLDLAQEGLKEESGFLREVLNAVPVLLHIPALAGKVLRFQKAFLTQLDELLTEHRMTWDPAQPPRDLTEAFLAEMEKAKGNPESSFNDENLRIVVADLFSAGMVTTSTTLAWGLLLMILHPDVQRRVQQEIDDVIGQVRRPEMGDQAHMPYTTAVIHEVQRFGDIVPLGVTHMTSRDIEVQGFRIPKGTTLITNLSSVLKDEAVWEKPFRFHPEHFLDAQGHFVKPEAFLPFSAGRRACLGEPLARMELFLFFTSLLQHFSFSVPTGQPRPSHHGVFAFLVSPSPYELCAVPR

Compound | CYP2D6 AC50 (half-maximal activity concentration)
Cc1c(C)c([N+](=O)[O-])c(C(C)(C)C)c([N+](=O)[O-])c1C | Inactive
O=[N+]([O-])c1cc(C(F)(F)F)cc([N+](=O)[O-])c1Cl | Inconclusive inhibitor
N#CCCC(Br)(C#N)CBr (centres unmarked) [1,2-Dibromo-2,4-dicyanobutane] | Inconclusive inhibitor
c1cnc2c(c1)ccc1cccnc12 [1,10-Phenanthroline] | Inconclusive inhibitor
O=[N+]([O-])c1cccc2ccccc12 [1-Nitronaphthalene] | Inactive
CCCCOC(=O)COc1ccc(Cl)cc1Cl [2,4-D 1-butyl ester] | Inactive
O=C(NC(=O)c1c(F)cccc1F)Nc1cc(Cl)c(Oc2ncc(C(F)(F)F)cc2Cl)c(Cl)c1 [Chlorfluazuron] | Inactive
CCSC(=O)N(CC)C1CCCCC1 [Cycloate] | Inactive
N#Cc1c(Cl)cccc1Cl [Dichlobenil] | Inactive
C[C@]12CC[C@@H]3c4ccc(OC(=O)N(CCCl)CCCl)cc4CC[C@H]3[C@@H]1CC[C@@H]2O [Estramustine] | Inactive
CCC1(c2ccccc2)CCC(=O)NC1=O (centres unmarked) [Glutethimide] | Inactive
C[C@@H]1CC[C@@]2(OC1)O[C@H]1C[C@H]3[C@@H]4CC[C@H]5C[C@@H](O)CC[C@]5(C)[C@H]4CC(=O)[C@]3(C)[C@H]1[C@@H]2C [Hecogenin] | Inactive
O=C(O)CCCc1c[nH]c2ccccc12 [Indole-3-butyric acid] | Inactive
O=C(CCOCCOCCOCCOCCC(=O)Nc1c(I)cc(I)c(C(=O)O)c1I)Nc1c(I)cc(I)c(C(=O)O)c1I [Iodoxamic Acid] | Inactive
CC(=O)[C@H]1[C@H](C#N)C[C@H]2[C@@H]3CC=C4C[C@@H](O)CC[C@]4(C)[C@H]3CC[C@@]21C [Pregnenolone carbonitrile] | Inactive
O=C1OC(=O)c2c(Cl)c(Cl)c(Cl)c(Cl)c21 [Tetrachlorophthalic anhydride] | Inconclusive inhibitor

biological target: T3, human CYP1A2 (Homo sapiens, UniProt P05177); assay: not given; settings: not given
T3 sequence (P05177 1-516): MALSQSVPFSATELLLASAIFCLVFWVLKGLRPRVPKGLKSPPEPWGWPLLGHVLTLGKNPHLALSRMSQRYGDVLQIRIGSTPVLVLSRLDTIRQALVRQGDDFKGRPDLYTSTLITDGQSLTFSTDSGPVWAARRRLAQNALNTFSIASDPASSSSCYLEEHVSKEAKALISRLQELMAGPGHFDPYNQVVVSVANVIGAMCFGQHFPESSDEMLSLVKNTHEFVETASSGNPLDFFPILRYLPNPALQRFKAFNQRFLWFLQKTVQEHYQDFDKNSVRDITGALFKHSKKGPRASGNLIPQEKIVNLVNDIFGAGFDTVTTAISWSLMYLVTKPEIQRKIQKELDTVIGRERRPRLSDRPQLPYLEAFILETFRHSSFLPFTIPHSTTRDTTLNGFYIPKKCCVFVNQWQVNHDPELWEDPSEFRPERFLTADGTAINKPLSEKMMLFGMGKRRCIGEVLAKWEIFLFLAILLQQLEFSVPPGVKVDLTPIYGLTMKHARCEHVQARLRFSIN

Compound | CYP1A2 AC50 (half-maximal activity concentration)
O=C(NC(=O)c1c(F)cccc1F)Nc1cc(Cl)c(Oc2ncc(C(F)(F)F)cc2Cl)c(Cl)c1 [Chlorfluazuron] | Inactive
CCSC(=O)N(CC)C1CCCCC1 [Cycloate] | Inactive
N#Cc1c(Cl)cccc1Cl [Dichlobenil] | Inconclusive inhibitor
C[C@]12CC[C@@H]3c4ccc(OC(=O)N(CCCl)CCCl)cc4CC[C@H]3[C@@H]1CC[C@@H]2O [Estramustine] | Inactive
CCC1(c2ccccc2)CCC(=O)NC1=O (centres unmarked) [Glutethimide] | Inactive
C[C@@H]1CC[C@@]2(OC1)O[C@H]1C[C@H]3[C@@H]4CC[C@H]5C[C@@H](O)CC[C@]5(C)[C@H]4CC(=O)[C@]3(C)[C@H]1[C@@H]2C [Hecogenin] | Inactive
O=C(O)CCCc1c[nH]c2ccccc12 [Indole-3-butyric acid] | Inactive
O=C(CCOCCOCCOCCOCCC(=O)Nc1c(I)cc(I)c(C(=O)O)c1I)Nc1c(I)cc(I)c(C(=O)O)c1I [Iodoxamic Acid] | Inactive
CC(=O)[C@H]1[C@H](C#N)C[C@H]2[C@@H]3CC=C4C[C@@H](O)CC[C@]4(C)[C@H]3CC[C@@]21C [Pregnenolone carbonitrile] | Inactive
O=C1OC(=O)c2c(Cl)c(Cl)c(Cl)c(Cl)c21 [Tetrachlorophthalic anhydride] | Inactive

biological target: T1, human CYP2C9; assay: biochemical; settings: not given

Compound | AC50
CCCCOC(=O)COc1ccc(Cl)cc1Cl [2,4-D 1-butyl ester] | 35.6 µM

same assay, conditions: CYP2C9 AC50 (half-maximal activity concentration)

Compound | AC50
Cc1c(C)c([N+](=O)[O-])c(C(C)(C)C)c([N+](=O)[O-])c1C | 51.7 µM
O=[N+]([O-])c1cc(C(F)(F)F)cc([N+](=O)[O-])c1Cl | 18 µM
N#CCCC(Br)(C#N)CBr (centres unmarked) [1,2-Dibromo-2,4-dicyanobutane] | 8.43 µM
c1cnc2c(c1)ccc1cccnc12 [1,10-Phenanthroline] | 4.65 µM
O=[N+]([O-])c1cccc2ccccc12 [1-Nitronaphthalene] | 31.2 µM

biological target: T2, human CYP2C19; assay: not given; settings: not given

Compound | CYP2C19 AC50 (half-maximal activity concentration)
O=C(NC(=O)c1c(F)cccc1F)Nc1cc(Cl)c(Oc2ncc(C(F)(F)F)cc2Cl)c(Cl)c1 [Chlorfluazuron] | Inconclusive inhibitor
CCSC(=O)N(CC)C1CCCCC1 [Cycloate] | Inconclusive inhibitor
N#Cc1c(Cl)cccc1Cl [Dichlobenil] | Inactive
C[C@]12CC[C@@H]3c4ccc(OC(=O)N(CCCl)CCCl)cc4CC[C@H]3[C@@H]1CC[C@@H]2O [Estramustine] | Inactive
CCC1(c2ccccc2)CCC(=O)NC1=O (centres unmarked) [Glutethimide] | Inconclusive inhibitor
C[C@@H]1CC[C@@]2(OC1)O[C@H]1C[C@H]3[C@@H]4CC[C@H]5C[C@@H](O)CC[C@]5(C)[C@H]4CC(=O)[C@]3(C)[C@H]1[C@@H]2C [Hecogenin] | Inactive
O=C(O)CCCc1c[nH]c2ccccc12 [Indole-3-butyric acid] | Inconclusive inhibitor
O=C(CCOCCOCCOCCOCCC(=O)Nc1c(I)cc(I)c(C(=O)O)c1I)Nc1c(I)cc(I)c(C(=O)O)c1I [Iodoxamic Acid] | Inactive
CC(=O)[C@H]1[C@H](C#N)C[C@H]2[C@@H]3CC=C4C[C@@H](O)CC[C@]4(C)[C@H]3CC[C@@]21C [Pregnenolone carbonitrile] | Inactive

biological target: T3, human CYP1A2; assay: biochemical; settings: not given

Compound | AC50
CCCCOC(=O)COc1ccc(Cl)cc1Cl [2,4-D 1-butyl ester] | 35.7 ± 4.11 µM

same assay, conditions: CYP1A2 AC50 (half-maximal activity concentration)

Compound | AC50
Cc1c(C)c([N+](=O)[O-])c(C(C)(C)C)c([N+](=O)[O-])c1C | 17.5 µM
O=[N+]([O-])c1cc(C(F)(F)F)cc([N+](=O)[O-])c1Cl | 64.7 µM
N#CCCC(Br)(C#N)CBr (centres unmarked) [1,2-Dibromo-2,4-dicyanobutane] | 14.6 µM
c1cnc2c(c1)ccc1cccnc12 [1,10-Phenanthroline] | 11.7 µM
O=[N+]([O-])c1cccc2ccccc12 [1-Nitronaphthalene] | 2.96 µM

biological target: CYP3A4 (Homo sapiens, UniProt P08684); assay: biochemical; settings: not given
Sequence (P08684 whole entry): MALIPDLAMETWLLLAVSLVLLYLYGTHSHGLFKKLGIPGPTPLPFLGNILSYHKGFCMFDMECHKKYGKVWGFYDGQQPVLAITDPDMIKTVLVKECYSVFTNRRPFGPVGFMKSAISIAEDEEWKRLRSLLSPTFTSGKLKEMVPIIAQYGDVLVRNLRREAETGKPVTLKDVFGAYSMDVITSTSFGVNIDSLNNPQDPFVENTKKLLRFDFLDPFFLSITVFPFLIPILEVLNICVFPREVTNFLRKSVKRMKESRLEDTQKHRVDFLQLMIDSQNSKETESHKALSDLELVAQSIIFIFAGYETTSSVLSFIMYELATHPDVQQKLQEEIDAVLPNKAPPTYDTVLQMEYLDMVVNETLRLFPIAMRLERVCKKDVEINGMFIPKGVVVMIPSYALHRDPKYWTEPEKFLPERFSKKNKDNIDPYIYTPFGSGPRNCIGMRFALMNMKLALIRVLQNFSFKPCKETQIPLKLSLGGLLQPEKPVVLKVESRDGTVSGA

Compound | AC50
CCCCOC(=O)COc1ccc(Cl)cc1Cl [2,4-D 1-butyl ester] | 2.69 ± 0.56 µM
O=C(CCOCCOCCOCCOCCC(=O)Nc1c(I)cc(I)c(C(=O)O)c1I)Nc1c(I)cc(I)c(C(=O)O)c1I [Iodoxamic Acid] | 5.65 ± 2.66 µM

same assay, conditions: CYP3A4 AC50 (half-maximal activity concentration)

Compound | AC50
Cc1c(C)c([N+](=O)[O-])c(C(C)(C)C)c([N+](=O)[O-])c1C | 12.2 µM
O=[N+]([O-])c1cc(C(F)(F)F)cc([N+](=O)[O-])c1Cl | 49.2 µM
N#CCCC(Br)(C#N)CBr (centres unmarked) [1,2-Dibromo-2,4-dicyanobutane] | 9.92 µM
c1cnc2c(c1)ccc1cccnc12 [1,10-Phenanthroline] | 69.5 µM
O=[N+]([O-])c1cccc2ccccc12 [1-Nitronaphthalene] | 15.6 µM
O=C(NC(=O)c1c(F)cccc1F)Nc1cc(Cl)c(Oc2ncc(C(F)(F)F)cc2Cl)c(Cl)c1 [Chlorfluazuron] | 9.2 µM
CCSC(=O)N(CC)C1CCCCC1 [Cycloate] | 31.7 µM
N#Cc1c(Cl)cccc1Cl [Dichlobenil] | 17.8 µM
C[C@]12CC[C@@H]3c4ccc(OC(=O)N(CCCl)CCCl)cc4CC[C@H]3[C@@H]1CC[C@@H]2O [Estramustine] | 16.9 µM
CCC1(c2ccccc2)CCC(=O)NC1=O (centres unmarked) [Glutethimide] | 26 µM
C[C@@H]1CC[C@@]2(OC1)O[C@H]1C[C@H]3[C@@H]4CC[C@H]5C[C@@H](O)CC[C@]5(C)[C@H]4CC(=O)[C@]3(C)[C@H]1[C@@H]2C [Hecogenin] | 0.98 µM
O=C(O)CCCc1c[nH]c2ccccc12 [Indole-3-butyric acid] | 13.4 µM
CC(=O)[C@H]1[C@H](C#N)C[C@H]2[C@@H]3CC=C4C[C@@H](O)CC[C@]4(C)[C@H]3CC[C@@]21C [Pregnenolone carbonitrile] | 2.22 µM
O=C1OC(=O)c2c(Cl)c(Cl)c(Cl)c(Cl)c21 [Tetrachlorophthalic anhydride] | 34.7 µM
